Laboratory results as given in a polymer gas permeability compilation.

Row | SMILES | CH4 permeability [Barrer] | CO2 permeability [Barrer] | H2 permeability [Barrer] | N2 permeability [Barrer] | O2 permeability [Barrer]
1 | *c1ccc2c(-c3c(OC(C)=O)ccc4cc(N5C(=O)c6ccc(C(c7ccc8c(c7)C(=O)N(*)C8=O)(C(F)(F)F)C(F)(F)F)cc6C5=O)ccc34)c(OC(C)=O)ccc2c1 (repeat unit) | 0.12 | 5.05 | 6.56 | 0.23 | 1.19
2 | *OC(=O)Oc1ccc(C2(c3ccc(*)cc3)CCCCC2)cc1 (repeat unit) | 0.092 | 2.2 | 9.1 | 0.105 | 0.6
3 | *c1ccc(C(C)(C)c2ccc(N3C(=O)c4ccc(C(c5ccc6c(c5)C(=O)N(*)C6=O)(C(F)(F)F)C(F)(F)F)cc4C3=O)cc2)cc1 (repeat unit) | 0.698 | 30 | – | 1.34 | 7.5
4 | *Oc1c(C)cc(C(C)(C)c2ccc(C(C)(C)c3cc(C)c(Oc4ccc(S(=O)(=O)c5ccc(*)cc5)cc4)c(C)c3)cc2)cc1C (repeat unit) | 0.6 | 13.2 | – | 0.571 | 3.2
5 | *Oc1ccc(S(=O)(=O)c2ccc(Oc3ccc(C(C)(C)c4ccc(*)c(C)c4)cc3C)cc2)cc1 (repeat unit) | 0.0706 | 2.1 | – | 0.0914 | 0.64
6 | *Oc1ccc(S(=O)(=O)c2ccc(Oc3ccc(C(C)(c4ccccc4)c4ccc(*)cc4)cc3)cc2)cc1 (repeat unit) | 0.32 | 8.12 | – | 0.278 | 1.56
7 | *c1ccc(C(c2ccc(-n3c(=O)c4cc5c(=O)n(*)c(=O)c5cc4c3=O)cc2)(C(F)(F)F)C(F)(F)F)cc1 (repeat unit) | 0.78 | 27.7 | 59.1 | 1.39 | 7.1
8 | *Oc1ccc(Oc2ccc(C(=O)c3ccc(*)cc3)cc2)c(-c2cc(C(F)(F)F)cc(C(F)(F)F)c2)c1 (repeat unit) | 0.38 | 8.7 | 21 | 0.54 | 3.3
9 | *CN1CN(*)c2cc3c(cc21)C1(C(C)C)c2ccccc2C3(C(C)C)c2cc(*)c(*)cc21 (repeat unit) | 215 | – | 4740 | 188 | 1070
10 | *c1ccc(-c2ccc(N3C(=O)c4ccc(Oc5cc(C(C)(C)C)ccc5Oc5ccc6c(c5)C(=O)N(*)C6=O)cc4C3=O)c(OC)c2)cc1OC (repeat unit) | 0.16 | 6.7 | 22 | 0.21 | 1.4
11 | *c1cc(C(c2ccc(C)c(-n3c(=O)c4cc5oc6cc7c(cc6oc5cc4c3=O)C3(CC(C)(C)c4cc5oc6cc8c(=O)n(*)c(=O)c8cc6oc5cc43)CC7(C)C)c2)(C(F)(F)F)C(F)(F)F)ccc1C (repeat unit) | 9 | 210 | 220 | 9 | 39
12 | *OC(=O)Oc1ccc(C2(c3ccc(*)cc3)c3ccccc3-c3ccccc32)cc1 (repeat unit) | 0.581 | 15.1 | – | 0.592 | 3.18
13 | *Nc1ccc(C(=O)c2ccc(NC(=O)c3cc(C(*)=O)cc(C(C)(C)C)c3)cc2)cc1 (repeat unit) | – | 4.96 | – | 0.23 | 1.16
14 | *c1ccc(-c2ccc(N3C(=O)c4ccc([Si](C)(C)c5ccc6c(c5)C(=O)N(*)C6=O)cc4C3=O)cc2)cc1 (repeat unit) | – | – | 8.38 | 0.109 | 0.677
15 | *Oc1c(C)cc(C(C)(C)c2cc(C)c(OC(=O)c3cccc(C(*)=O)c3)c(Br)c2)cc1Br (repeat unit) | 0.151 | 5.45 | 23.3 | 0.219 | 1.52
16 | *CC(*)C(=O)OCCCCCCCCCC (repeat unit) | 47.8 | 261 | 92.7 | 19 | 47.6

Row | SMILES | CH4 permeability [Barrer] | CO2 permeability [Barrer] | H2 permeability [Barrer] | N2 permeability [Barrer] | O2 permeability [Barrer]
17 | *c1ccc(Oc2ccc(C(c3ccccc3)(c3ccccc3)c3ccc(Oc4ccc(*)cc4)cc3)cc2)cc1 (repeat unit) | 0.14 | 9.57 | – | 0.47 | 2.26
18 | *c1ccc(Oc2ccc(C(=O)c3ccc(Oc4ccc(C(*)(c5ccccc5)C(F)(F)F)cc4)cc3)cc2)cc1 (repeat unit) | – | 4.2 | 11 | 0.15 | 0.91
19 | *CCC(F)(F)C(*)(F)F (repeat unit) | – | 1.98 | – | 0.182 | 0.532
20 | */C=C/c1ccc(*)cc1[Si](C)(C)C(C)(C)C (repeat unit) | – | 26 | – | 1.5 | 6.5
21 | */C=C/C1CCC(*)C1 (repeat unit) | 2.5 | 15.4 | 21 | 1.5 | 2.8
22 | *Oc1ccc(C(C)(c2ccccc2)c2ccc(OC(=O)c3cccc(C(*)=O)c3)cc2)cc1 (repeat unit) | 0.59 | 13.1 | – | 0.54 | 2.58
23 | *c1ccc(Oc2ccc(-n3c(=O)c4cc5c(=O)n(*)c(=O)c5cc4c3=O)cc2)cc1 (repeat unit) | 0.0682 | 2.73 | 7.52 | 0.0995 | 0.591
24 | *c1cc(-c2nc3cc(-c4ccc5[nH]c(*)nc5c4)ccc3[nH]2)cc(C(C)(C)C)c1 (repeat unit) | 0.05 | 1.91 | 10.7 | 0.06 | 0.42
25 | *CC(*)(C)C(=O)OCC (repeat unit) | 0.347 | 6.03 | 21.8 | 0.276 | 1.52
26 | *CC(C)C(=O)OC(C)C(*)=O (repeat unit) | 1 | 0.905 | – | 0.04 | 0.26
27 | *Cc1cc(Cl)c(C*)cc1Cl (repeat unit) | – | 0.783 | – | 0.0271 | 0.181
28 | *CC(*)(C)c1ccccc1 (repeat unit) | 0.14 | 3 | – | 0.15 | 0.82
29 | */N=C1/c2ccc(C(c3ccc4c(c3)-c3nc5cc(Oc6ccc(*)c(*)c6)ccc5n3C4=O)(C(F)(F)F)C(F)(F)F)cc2C(=O)N1* (repeat unit) | 0.54 | 27.6 | – | 1.2 | 7.9
30 | *c1ccc2c(c1)C1(CC2(C)C)CC(C)(C)c2ccc(N3C(=O)c4cc5c(cc4C3=O)C3(CC(C)(C)c4cc6c(cc43)C(=O)N(*)C6=O)CC5(C)C)cc21 (repeat unit) | 129 | 1520 | 624 | 65 | 208
31 | *Oc1ccc(C(c2ccc(OC(*)=O)cc2)(C(F)(F)F)C(F)(F)F)cc1 (repeat unit) | 1.05 | 24 | 27 | 1.7 | 6.9
